Reference: patent US20200339604A1, “PYRAZOLOPYRIMIDINE COMPOUNDS AS JAK INHIBITORS” (Genentech, Inc., priority 2018, published 2020)
Where two headings read alike, the source gives them in different places.

Key:
[1] = molecular target: T1, isolated recombinant JAK2 kinase domain (Homo sapiens, UniProt O60674); assay: JAK enzyme assay, JAK2 kinase domain (Caliper LabChip); format: biochemical; conditions: 0.2 nM JAK2, ATP 25 μM, Morrison tight binding model
T1 construct: isolated recombinant JAK1 and JAK2 kinase domain
Description: (§1) JAK Enzyme Assays were Carried Out as Follows:
(§2) The activity of the isolated recombinant JAK1 and JAK2 kinase domain was measured by monitoring phosphorylation of a peptide derived from JAK3 ([…] fluorescently labeled on the N-terminus with 5-carboxyfluorescein) using the Caliper LabChip® technology (Caliper Life Sciences, Hopkinton, Mass.). To determine inhibition constants (K), compounds were diluted serially in DMSO and added to 50 μL kinase reactions containing purified enzyme (1.5 nM JAK1, or 0.2 nM JAK2), 100 mM HEPES buffer (pH 7.2), 0.015% Brij-35, 1.5 μM peptide substrate, ATP (25 μM), 10 mM MgCl2, 4 mM DTT at a final DMSO concentration of 2%.
(§3) Reactions were incubated at 22° C. in 384-well polypropylene microtiter plates for 30 minutes and then stopped by addition of 25 µL of an EDTA containing solution (100 mM HEPES buffer (pH 7.2), 0.015% Brij-35, 150 mM EDTA), resulting in a final EDTA concentration of 50 mM. After termination of the kinase reaction, the proportion of phosphorylated product was determined as a fraction of total peptide substrate using the Caliper LabChip® 3000 according to the manufacturer's specifications. K values were then determined using the Morrison tight binding model (Morrison, J. F., Biochim. Biophys. Acta. 185:269-296 (1969); William, J. W. and Morrison, J. F., Meth. Enzymol., 63:437-467 (1979)) modified for ATP-competitive inhibition [Ki=Ki, app/(1+[ATP]/Km,app)].

[2] = molecular target: T2, isolated recombinant JAK1 kinase domain (Homo sapiens, UniProt P23458); assay: JAK enzyme assay, JAK1 kinase domain (Caliper LabChip); format: biochemical; conditions: 1.5 nM JAK1, ATP 25 μM, Morrison tight binding model
T2 construct: isolated recombinant JAK1 and JAK2 kinase domain
Description: as §1, §2, §3

[3] = system: JAK1-dependent STAT6 phosphorylation downstream of IL-13 stimulation, BEAS-2B human bronchial epithelial cells; assay: JAK1 pathway assay in cell lines: IL-13 stimulated STAT6 phosphorylation in BEAS-2B cells (MSD); format: cell-based; conditions: IL-13 stimulation 15 min at EC90, read-out: IL-13 p-STAT6 BEAS-2B IC50
Description: JAK1 Pathway Assay in Cell Lines was Carried Out as Follows:
Inhibitor potency (EC50) was determined in cell-based assays designed to measure JAK1 dependent STAT phosphorylation. As noted above, inhibition of IL-4, IL-13, and IL-9 signaling by blocking the Jak/Stat signaling pathway can alleviate asthmatic symptoms in pre-clinical lung inflammation models (Mathew et al., 2001, J Exp Med 193(9): 1087-1096; Kudlacz et. al., 2008, Eur J. Pharmacol 582(1-3): 154-161).
In one assay approach, TF-1 human erythroleukemia cells obtained from the American Type Culture Collection (ATCC; Manassas, Va.) were used to measure JAK1-dependent STAT6 phosphorylation downstream of IL-13 stimulation. Prior to use in the assays, TF-1 cells were starved of GM-CSF overnight in OptiMEM medium (Life Technologies, Grand Island, N.Y.) supplemented with 0.5% charcoal/dextran stripped fetal bovine serum (FBS), 0.1 mM non-essential amino acids (NEAA), and 1 mM sodium pyruvate. The assays were run in 384-well plates in serum-free OptiMEM medium using 300,000 cells per well. In a second assay approach, BEAS-2B human bronchial epithelial cells obtained from ATCC were plated at 100,000 cells per well of a 96-well plate one day prior to the experiment. The BEAS-2B assay was run in complete growth medium (bronchial epithelial basal medium plus bulletkit; Lonza; Basel, Switzerland).
Test compounds were serially diluted 1:2 in DMSO and then diluted 1:50 in medium just before use. Diluted compounds were added to the cells, for a final DMSO concentration of […], and incubated for 30 m (for the TF-1 assay) or […] (for the BEAS-2B assay) at 37° C. Then, cells were stimulated with human recombinant cytokine at their respective EC90 concentrations, as previously determined for each individual lot. Cells were stimulated with IL-13 (R&D Systems, Minneapolis, Minn.) for 15 min at 37° C. The TF-1 cell reactions were stopped by the direct addition of 10× lysis buffer (Cell Signaling Technologies, Danvers, Mass.), whereas the BEAS-2B cell incubations were halted by the removal of medium and addition of 1× lysis buffer. The resultant samples were frozen in the plates at −80° C. Compound mediated inhibition of STAT6 phosphorylation was measured in the cell lysates using MesoScale Discovery (MSD) technology (Gaithersburg, Md.).

T1 sequence (O60674 849-1124 limits assumed): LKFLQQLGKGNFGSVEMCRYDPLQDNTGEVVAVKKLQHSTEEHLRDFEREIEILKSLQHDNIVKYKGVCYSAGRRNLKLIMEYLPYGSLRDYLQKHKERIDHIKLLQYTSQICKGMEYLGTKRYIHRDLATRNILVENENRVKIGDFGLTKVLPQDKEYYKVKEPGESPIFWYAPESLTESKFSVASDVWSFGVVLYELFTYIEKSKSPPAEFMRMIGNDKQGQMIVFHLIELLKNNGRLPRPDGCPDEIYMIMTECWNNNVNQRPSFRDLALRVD
T2 sequence (P23458 875-1153 limits assumed): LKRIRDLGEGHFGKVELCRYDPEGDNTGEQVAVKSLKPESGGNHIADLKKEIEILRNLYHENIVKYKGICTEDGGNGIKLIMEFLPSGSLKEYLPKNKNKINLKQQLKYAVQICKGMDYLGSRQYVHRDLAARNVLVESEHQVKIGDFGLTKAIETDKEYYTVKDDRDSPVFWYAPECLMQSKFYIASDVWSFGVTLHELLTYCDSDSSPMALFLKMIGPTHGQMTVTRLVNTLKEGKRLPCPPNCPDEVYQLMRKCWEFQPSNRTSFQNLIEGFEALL

SMILES	Ki [1] [nM]	Ki [2] [nM]	IC50 ([3]; Homo sapiens, BEAS-2B, […]) [nM]	IC50 [3] [nM]
O=C(Nc1cn(C2CCCC2=O)nc1-c1cc(Cl)ccc1OC(F)F)c1cnn2cccnc12 (racemic) [Example 35, N-[3-[5-chloro-2-(difluoromethoxy)phenyl]-1-(2-oxocyclopentyl)pyrazol-4-yl]pyrazolo[1,5-a]pyrimidine-3-carboxamide]	0.45	0.79	16	–
CN1CCN(C(=O)CN2CCC(n3cc(NC(=O)c4cnn5cccnc45)c(-c4cc(Cl)ccc4OC(F)F)n3)C2=O)CC1 (single isomer, unassigned) [Example 17, N-[3-[5-chloro-2-(difluoromethoxy)phenyl]-1-[1-[2-(4-methylpiperazin-1-yl)-2-oxo-ethyl]-2-oxo-pyrrolidin-3-yl]pyrazol-4-yl]pyrazolo[1,5-a]pyrimidine-3-carboxamide]	1.5	2.6	–	300
CN1CC[C@H](n2cc(NC(=O)c3cnn4cccnc34)c(-c3cc(Cl)ccc3OC(F)F)n2)C1=O (stereo in doubt) [Example 2, N-[3-[5-chloro-2-(difluoromethoxy)phenyl]-1-[rac-(3S)-1-methyl-2-oxo-pyrrolidin-3-yl]pyrazol-4-yl]pyrazolo[1,5-a]pyrimidine-3-carboxamide]	0.4	0.21	12	–
CN1CCC(n2cc(NC(=O)c3cnn4cccnc34)c(-c3cc(SC(F)F)ccc3OC(F)F)n2)C1=O (single isomer, unassigned) [Example 18, N-[3-[2-(difluoromethoxy)-5-(difluoromethyl-sulfanyl)phenyl]-1-(1-methyl-2-oxo-pyrrolidin-3-yl)pyrazol-4-yl]pyrazolo[1,5-a]pyrimidine-3-carboxamide]	0.39	0.28	–	15
O=C(Nc1cn(C2CCN(C3COC3)C2=O)nc1-c1cc(Cl)ccc1OC(F)F)c1cnn2cccnc12 (single isomer, unassigned) [Example 24, N-[3-[5-chloro-2-(difluoromethoxy)phenyl]-1-[1-(oxetan-3-yl)-2-oxo-pyrrolidin-3-yl]pyrazol-4-yl]pyrazolo[1,5-a]pyrimidine-3-carboxamide]	0.98	3.9	–	57
O=C(Nc1cn(C2CCN(C3COC3)C2=O)nc1-c1cc(Cl)ccc1OC(F)F)c1cnn2cccnc12 (single isomer, unassigned) [Example 23, N-[3-[5-chloro-2-(difluoromethoxy)phenyl]-1-[1-(oxetan-3-yl)-2-oxo-pyrrolidin-3-yl]pyrazol-4-yl]pyrazolo[1,5-a]pyrimidine-3-carboxamide]	0.54	0.51	–	23
CN1CCC(n2cc(NC(=O)c3cnn4cccnc34)c(-c3cc4c(cc3OC(F)F)NCCS4)n2)C1=O (single isomer, unassigned) [Example 13, N-[3-[6-(difluoromethoxy)-3,4-dihydro-2H-1,4-benzothiazin-7-yl]-1-(1-methyl-2-oxo-pyrrolidin-3-yl)pyrazol-4-yl]pyrazolo[1,5-a]pyrimidine-3-carboxamide]	0.43	0.88	–	290
O=C(Nc1cn(C2CCN(CCN3CCOCC3)C2=O)nc1-c1cc(Cl)ccc1OC(F)F)c1cnn2cccnc12 (single isomer, unassigned) [Example 14, N-[3-[5-chloro-2-(difluoromethoxy)phenyl]-1-[1-(2-morpholinoethyl)-2-oxo-pyrrolidin-3-yl]pyrazol-4-yl]pyrazolo[1,5-a] pyrimidine-3-carboxamide]	1.4	1.2	79	–
CN1CCC(n2cc(NC(=O)c3cnn4cccnc34)c(-c3cc(Cl)c(C#N)cc3OC(F)F)n2)C1=O (racemic) [Example 22, N-[3-[5-chloro-4-cyano-2-(difluoromethoxy)phenyl]-1-(1-methyl-2-oxo-pyrrolidin-3-yl)pyrazol-4-yl]pyrazolo[1,5-a]pyrimidine-3-carboxamide]	4	2.5	98	–
CSc1ccc(OC(F)F)c(-c2nn(C3CCN(C)C3=O)cc2NC(=O)c2cnn3cccnc23)c1 (single isomer, unassigned) [Example 7, N-[3-[2-(difluoromethoxy)-5-methylsulfanyl-phenyl]-1-(1-methyl-2-oxo-pyrrolidin-3-yl)pyrazol-4-yl]pyrazolo[1,5-a]pyrimidine-3-carboxamide]	0.31	0.84	–	42
O=C(Nc1cn(C2CCOC2=O)nc1-c1cc(SC(F)F)ccc1OC(F)F)c1cnn2cccnc12 (single isomer, unassigned) [Example 31, N-[3-[2-(difluoromethoxy)-5-(difluoromethyl-sulfanyl)phenyl]-1-(2-oxotetrahydrofuran-3-yl)pyrazol-4-yl]pyrazolo[1,5-a]pyrimidine-3-carboxamide]	0.4	0.7	–	16
CN1CCC(n2cc(NC(=O)c3cnn4cccnc34)c(-c3cc4c(cc3OC(F)F)NCCO4)n2)C1=O (single isomer, unassigned) [Example 10, N-[3-[6-(difluoromethoxy)-3,4-dihydro-2H-1,4-benzoxazin-7-yl]-1-(1-methyl-2-oxo-pyrrolidin-3-yl)pyrazol-4-yl]pyrazolo[1,5-a]pyrimidine-3-carboxamide]	0.58	0.37	190	–
O=C(Nc1cn(C2CCOC2=O)nc1-c1cc(Cl)ccc1OC(F)F)c1cnn2cccnc12 (racemic) [Example 25, N-[3-[5-chloro-2-(difluoromethoxy)phenyl]-1-(2-oxotetrahydrofuran-3-yl)pyrazol-4-yl]pyrazolo[1,5-a]pyrimidine-3-carboxamide; formic acid]	0.21	0.37	19	–
CS(=O)(=O)c1ccc(OC(F)F)c(-c2nn(C3CCOC3=O)cc2NC(=O)c2cnn3cccnc23)c1 (single isomer, unassigned) [Example 41, N-[3-[2-(difluoromethoxy)-5-methylsulfonyl-phenyl]-1-(2-oxotetrahydrofuran-3-yl)pyrazol-4-yl] pyrazolo[1,5-a]pyrimidine-3-carboxamide]	0.23	0.4	–	99
CN1CCC(n2cc(NC(=O)c3cnn4cccnc34)c(-c3cc(OC(F)F)ccc3OC(F)F)n2)C1=O (single isomer, unassigned) [Example 8, N-[3-[2,5-bis(difluoromethoxy)phenyl]-1-(1-methyl-2-oxo-pyrrolidin-3-yl)pyrazol-4-yl]pyrazolo[1,5-a]pyrimidine-3-carboxamide]	0.84	0.3	–	20
CN1CCC(n2cc(NC(=O)c3cnn4cccnc34)c(-c3cc4c(cc3OC(F)F)NCCO4)n2)C1=O (single isomer, unassigned) [Example 11, N-[3-[6-(difluoromethoxy)-3,4-dihydro-2H-1,4-benzoxazin-7-yl]-1-(1-methyl-2-oxo-pyrrolidin-3-yl)pyrazol-4-yl]pyrazolo[1,5-a]pyrimidine-3-carboxamide]	0.5	1.2	–	230
